Experimental data reported in patent US8309356B2, “Pseudocomplementary oligonucleotides for targeted gene therapy” (Yale University, priority 2009, dated 2012).

How the values were obtained:
supF reporter gene = test: Induced recombination / gene correction of supF reporter gene in SV40-based shuttle vector transfected into COS cells, scored in indicator bacteria; type: cell-based, monkey; conditions: plasmid co-mixed with binding molecule and supF1-donor DNA, two days
Source text: In this assay, each targeting oligomer was designed, including the pair of pcPNAs, the TFO (AG30) and the bis-PNA (bis-PNA5), to bind to a selected site in the supF reporter gene contained in an SV40-based shuttle vector. In this vector construct, the supF gene has an inactivating single base pair mutation which can be corrected by recombination with a short single stranded oligonucleotide donor. The pcPNAs were designed to bind to a mixed sequence site 62 by away from the mutation, whereas the TFO and the bis-PNA were targeted to a G:C by rich polypurine site 24 by away from the mutation. The plasmid vector DNA was co-mixed with selected molecules, and the samples were transfected into monkey COS cells. Two days were allowed for repair/recombination/replication, and the episomal vector DNA was harvested for genetic analysis of the supF gene in indicator bacteria, as previously described (by Chan, et al., J. Biol. Chem., 274:11541-11548 (1999)). As expected, and consistent with other published work, the TFO (AG30) and the bis-PNAS induced gene correction in the supF gene at frequencies of 0.14% and 0.21%, respectively (FIG. 4). […] A pair of control pcPNAs (pcPNA3 and pcPNA4) with 5 mismatches each to the supF target site were ineffective, showing the sequence specificity of the process.

[1] = tested on: chromosomal GFP/IVS2-1^G→A gene; test: Gene correction of chromosomal GFP/IVS2-1G→A fusion gene in CHO reporter cells, GFP-positive cells quantified by FACS; type: cell-based; conditions: with β-globin/GFP donor DNA (or donor alone)
Procedure: The HinDIII-NotI fragments of these plasmids, containing the GFP sequence interrupted by IVS2-1 or IVS2 wt construct, were subcloned into the multiple cloning site of pcDNA5/FRT (Invitrogen, Carlsbad, Calif.), and the resulting vectors were stably transfected into CHO-Flp host cell lines using the Flp-In System according to manufacturer's instructions (Invitrogen, Carlsbad Calif.). […] The resulting CHO-GFP/IVS2-1^G→A cells and control CHO-GFP/IVS2-1^WT cells were grown in Ham's F12 media supplemented with 10% FBS and 2 mM L-glutamine.
1×10^6 cells in 100 μl of media were mixed with selected pcPNAs (6 μM) and GFP-DNA (12 μM) oligonucleotides and electroporated in 0.4 cm cuvettes using a Bio-Rad Gene Pulser (280V, […], Hercules, Calif.). Cells were replated in 60 mm dishes following electroporation and allowed to expand to approximately 90% confluency (2-3 days). […] Two days later as indicated, cells were then visualized via fluorescence microscopy or analyzed by FACS.
Cells were visualized using a Zeiss Axiovert 200 (Thornwood, N.Y.) fluorescent microscope at 100× and 200× magnification. […] Cells were analyzed using a Becton Dickinson FACS-Calibur flow cytometer (Franklin Lakes, N.J.). […] Collected data were then analyzed using the FlowJo software (Tree Star Inc., Ashland, Oreg.). […]

“AGGAAGGGGGGGGTGGTGGGGGAGGGGGAG (chemistry not given here) [AG30]” was tested, and the “Frequency of gene correction in the supF gene (recombination frequency)” value (supF reporter gene) was 0.14%.

With “GTTCAGCGTGTCCGGCGAGGGCGAGGTGAGTCTATGGGACCCTTGATGTTT (listed as DNA, chemistry not given here) [GFP-donor DNA]” the “Frequency of gene correction” value ([1]; S-phase synchronized cells, SAHA, single treatment) was 0.29% and the “Frequency of gene correction” value ([1]; asynchronous CHO-GFP/IVS2-1G→A cells, single electroporation, no additive) was 0.005%.

In the case of “JJJJJTTJJT-O-O-O-TCCTTCCCCC-(Lys)3 (JJJJJTTJJT-O-O-O-TCCTTCCCCC-(Lys)_{3}; as printed in the source, key not given here) [Bis-PNA5]”, the “Frequency of gene correction in the supF gene (recombination frequency)” value (supF reporter gene) is reported as 0.21%.
